Measurements published in PubChem BioAssay AID449762 (Southern Research Specialized Biocontainment Screening …, 2010).
Records with an inconclusive call do not appear.

Test system: M. tuberculosis H37Rv growth inhibition, 7H9 media
Experiment: M. tuberculosis growth inhibition, HTS (AID 449762);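 further: bacterial growth assessed after seven days of incubation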
Details: for IC90: measured here: IC90 growth inhibition

Row | Compound | IC50 | IC90
1 | c1nc2n(n1)C1=C(CCCC1)C1(CCCCC1)N2 | 10.2 µM | 30 µM
2 | CCCCn1cnc2cc(NCc3cccc(OC)c3O)ccc21 | 80.2 µM | > 100 µM
3 | CN(C(=S)NC(=O)c1ccc(Cl)cc1)C1CCCCC1 | 3.1 µM | 13.7 µM
4 | CC1CCN(c2nc(Cl)nc(Nc3ccc([N+](=O)[O-])cc3)n2)CC1 | 79.8 µM | > 100 µM
5 | CCOC(=O)Cc1csc(NC(=O)c2c(O)c3c(n(CC(C)C)c2=O)CCCC3)n1 | 5.19 µM | 72 µM
6 | C=CCn1cccc(/C=C/C(=O)c2ccc(C(C)(C)C)cc2)c1=S | 27.8 µM | 56.5 µM
7 | Cc1ccc(/C=N/NC(=S)NC(C)C)o1 | 42.4 µM | 47.9 µM
8 | O=C(CCC(=O)NC1CCCCCCC1)Nc1nnc(C(F)(F)F)s1 | 12 µM | 13.9 µM
9 | CO/N=C(\Cn1ncc(N2CCCC2)c(Cl)c1=O)c1ccc(Cl)cc1 | 16.9 µM | 27.5 µM
10 | CC(C)OC(=O)CSc1nc2ccccc2s1 | 12.4 µM | 33.6 µM
11 | O=c1c(C=Nc2ccc(Oc3ccccc3)cc2)c[nH]n1-c1cccc(Cl)n1 | 10.6 µM | > 100 µM
12 | N#C/C(N=Nc1ccccc1O)=N\Nc1ccccc1O | < 0.2 µM | 1.65 µM
13 | COc1ccc(-n2nc3c(c2NC(=O)CCl)CSC3)cc1 | 4.85 µM | 9.39 µM
14 | Cc1cc(=O)n2cccc(O)c2n1 | 5.94 µM | 15.6 µM
15 | CC(=O)c1cccc(NC(=O)C2C3C=CC(C3=C(c3ccccc3)c3ccccc3)C2C(=O)O)c1 (centres undefined) | – | > 100 µM
16 | Cc1ccc(OC(=O)c2oc3ccc(F)cc3c2C)c(C)c1 | 6.82 µM | 18.6 µM
17 | COC(OC)c1ccnc(-c2ccc(OC(=O)c3cccs3)cc2)n1 | 62.4 µM | > 100 µM
18 | O=C(CSc1nc(Nc2ccccc2)nc(N2CCOCC2)n1)Nc1cc(Cl)ccc1O | 44 µM | > 50 µM
19 | O=C(Nc1ccc(-n2cccc2)cc1)C1CC1 | 1.84 µM | > 100 µM
20 | Cc1c2c(nc3ccccc13)CCC(C)C2 (centres undefined) | 33.8 µM | 61.8 µM
21 | Cn1ncnc2c(=O)n(C)c(=O)nc1-2 | 1.66 µM | 2.62 µM
22 | COCC(=O)O[C@]1(CCN(C)CCCc2nc3ccccc3[nH]2)CCc2cc(F)ccc2[C@@H]1C(C)C | 32.2 µM | 42.6 µM
23 | C/C(=N\NC(=O)c1nnn(-c2nonc2N)c1CN(C)c1ccccc1)c1ccccn1 | 8.5 µM | 15.7 µM

Row | Compound | IC50 | IC90
24 | Cc1ccc(C(C)C)c(OCC(=O)OCc2c(C)noc2C)c1 | 2.86 µM | 3.29 µM
25 | O=C1C(=O)N(c2ccccc2)c2ccccc21 | 8.23 µM | 17.7 µM
26 | Cc1c([N+](=O)[O-])cnc(Sc2ccccc2)c1[N+](=O)[O-] | 2.01 µM | 7.59 µM
27 | Cn1c(N)c(C(=O)COC(=O)c2ccc([N+](=O)[O-])o2)c(=O)n(C)c1=O | 2.81 µM | 4.54 µM
28 | CCOc1cc(/C=C2\COc3ccccc3C2=O)cc(Br)c1OCC(=O)N(C)C | 2.75 µM | 6.63 µM
29 | COC(=O)c1ccc(NC(=O)CSc2nc3ccc(N4C(=O)C5C6C=CC(C6)C5C4=O)cc3s2)cc1 (centres undefined) | 3.89 µM | 5.73 µM
30 | CN(CC(=O)Nc1ccc(F)c(F)c1F)c1cnccn1 | 6.08 µM | 12.8 µM
31 | CCc1nnc(N/N=C/c2cc(C)c(C)cc2C)n1N | 7.24 µM | 16 µM
32 | CC(=O)N(Cc1ccc(F)cc1)C1=C(NCCc2ccccc2)C(=O)c2ccccc2C1=O | 5.83 µM | 6.59 µM
33 | O=C1CC(=C(c2ccccc2)c2ccccc2)C(=O)N1CCCCN1CCN(c2ccccc2)CC1 | 22.8 µM | 26 µM
34 | O=C(/C(=C/c1ccc(Cl)cc1)c1nc2ccccc2[nH]1)c1cccs1 | 21.2 µM | 42.7 µM
35 | Cc1cc(C)n(-c2cc(C(C)(C)C)nc3c(-c4ccccc4)cnn23)n1 | 27.3 µM | 34.7 µM
36 | Cc1n[nH]c(=S)n1/N=C/c1cccc(OCc2ccccc2)c1 | 75.4 µM | > 100 µM
37 | CCOC(=O)CSc1snnc1-c1ccccc1 | 13.9 µM | 59.6 µM
38 | Cc1ccc(C2=NNC3(CCOC(C)(C)C3)S2)cc1 (centres undefined) | 11.1 µM | 14.9 µM
39 | Oc1ccc(CN2CCc3ccccc3C2)c2cccnc12 | 61.5 µM | > 100 µM
40 | O[C@@H](c1cc(C(F)(F)F)nc2c(C(F)(F)F)cccc12)[C@H]1CCCCN1 | 18.2 µM | 24.5 µM
41 | O=C(OCn1ncc(Br)c(Br)c1=O)c1ccc(F)cc1 | 1.17 µM | 3.58 µM
42 | N#C/C=C\Oc1ccc(Cl)cc1N | 14 µM | 23.3 µM
43 | CCc1ccc2c(c1)C1(C(=O)N2)N2CCCC2C(C(=O)c2ccc3ccccc3c2)C12C(=O)Nc1ccccc12 (centres undefined) | 13.1 µM | 30.9 µM
44 | CCOc1cc(/C=N/Nc2nc(Nc3ccccc3)nc(N3CCCCC3)n2)ccc1OCC(=O)O | 7.04 µM | 23.4 µM
45 | O=C(NC(=S)Nc1ccc(N2CCCCC2)c(Cl)c1)c1cccs1 | 20.2 µM | 27.1 µM
